The record followed here is patent US10034886B2, “GLP-1 receptor modulators” (Celgene International II SÀRL, priority 2014, dated 2018).

In general, EC50 refers to the concentration needed to bring the measured effect to its halfway point.

In this assay the target is T1, GLP-1R (Homo sapiens, UniProt P43220).
T1 construct: host or cells: GLP-1R CRE-bla CHO-K1 cells
T1 sequence (P43220 24-463): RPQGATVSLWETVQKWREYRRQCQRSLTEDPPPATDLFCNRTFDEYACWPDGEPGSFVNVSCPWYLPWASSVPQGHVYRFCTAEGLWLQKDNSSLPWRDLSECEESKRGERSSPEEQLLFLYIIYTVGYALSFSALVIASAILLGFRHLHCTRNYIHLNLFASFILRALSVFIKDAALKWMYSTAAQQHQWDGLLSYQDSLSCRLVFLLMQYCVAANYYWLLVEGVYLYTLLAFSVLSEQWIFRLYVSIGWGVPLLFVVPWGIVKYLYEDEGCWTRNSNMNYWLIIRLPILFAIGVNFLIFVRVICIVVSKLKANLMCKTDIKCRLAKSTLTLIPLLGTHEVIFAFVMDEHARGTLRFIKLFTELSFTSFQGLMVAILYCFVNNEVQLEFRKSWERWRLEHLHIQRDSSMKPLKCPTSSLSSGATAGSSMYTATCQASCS
T1 sequence (P01275 100-127 partner limits assumed): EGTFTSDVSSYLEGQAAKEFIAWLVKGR
Briefly: EC20 GLP-1(9-36) PAM cAMP assay: dose response of compound in the presence of fixed concentration of GLP-1(9-36). The following applies: dose response of compound in presence of fixed concentration of GLP-1(9-36), GLP-1R CRE-bla CHO-K1 cells, read-out: EC20 GLP-1(9-36) PAM EC50. In kind it is cell-based. The essentials: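 Positive allosteric modulation read as cAMP accumulation: compound titrations (12 points) combined with an EC20 level of GLP-1(9-36) on CHO-K1 GLP-1R CRE-bla cells, IBMX present, 30 min, 37 °C, pH 7.4 buffer. Luminescence converted to cAMP via standards; non-linear fit gave EC50 and Emax.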
`CC(C)(C)c1ccc(-c2cnc(-c3ccc(C[C@H](NC(=O)c4ccc(C(C)(C)C)s4)C(=O)N4CC(C(=O)O)C4)cc3)nc2)cc1` [Compound 783]: the 50% effective concentration (EC50) was in the range of 800 to 2500 nM. On to `COc1ccc(-c2cnc(-c3ccc(C[C@H](NC(=O)c4ccc(C(C)(C)C)s4)C(=O)N4CC(C(=O)O)C4)cc3)nc2)cc1` [Compound 784], for which the 50% effective concentration (EC50) is 5000 to 10000 nM. To `CCCOc1ccc(-c2cnc(-c3ccc(C[C@H](NC(=O)c4ccc(C(C)(C)C)s4)C(=O)N4CC(C(=O)O)C4)cc3)nc2)cc1` [Compound 785] belongs 2500 to 5000 nM; to `CCCCOc1ccc(-c2cnc(-c3ccc(C[C@H](NC(=O)c4ccc(C(C)(C)C)s4)C(=O)N4CC(C(=O)O)C4)cc3)nc2)cc1` [Compound 786], 800 to 2500 nM; to `CCCCCOc1ccc(-c2cnc(-c3ccc(C[C@H](NC(=O)c4ccc(C(C)(C)C)s4)C(=O)N4CC(C(=O)O)C4)cc3)nc2)cc1` [Compound 787], 800 to 2500 nM. In the case of `CC(C)(C)c1ccc(C(=O)N[C@@H](Cc2ccc(-c3ncc(-c4ccc(C(F)(F)F)cc4)cn3)cc2)C(=O)N2CC(C(=O)O)C2)s1` [Compound 788], the concentration for a half-maximal effect (EC50) was in the range of 5000 to 10000 nM.

Take `CC(C)COc1ccc(-c2cnc(-c3ccc(C[C@H](NC(=O)c4ccc(C(C)(C)C)s4)C(=O)N4CC(C(=O)O)C4)cc3)nc2)cc1` [Compound 789]: the EC50 fell in the range of 2500 to 5000 nM.

`CCCCCCCOc1ccc(-c2cnc(-c3ccc(C[C@H](NC(=O)c4ccc(C(C)(C)C)s4)C(=O)N[C@H](C)C(=O)O)cc3)nc2)c(C)c1` [Compound 790]: the EC50 fell in the range of 800 to 2500 nM. Next, `CCCCCCCOc1cc(C)c(-c2cnc(-c3ccc(C[C@H](NC(=O)c4ccc(C(C)(C)C)s4)C(=O)N[C@H](C)C(=O)O)cc3)nc2)c(C)c1` [Compound 791]: 800 to 2500 nM. Next, `CC(C)CCCCOc1ccc(-c2cnc(-c3ccc(C[C@H](NC(=O)c4ccc(C(C)(C)C)cc4)C(=O)N[C@H](C)C(=O)O)cc3)nc2)cc1` [Compound 792]: 800 to 2500 nM. Take `CC(C)CCCOc1ccc(-c2cnc(-c3ccc(C[C@H](NC(=O)c4ccc(C(C)(C)C)cc4)C(=O)N[C@H](C)C(=O)O)cc3)nc2)cc1` [Compound 793]: the EC50 is 800 to 2500 nM.

With `C[C@@H](NC(=O)[C@H](Cc1ccc(-c2ncc(-c3ccc(OCCC4CCCCC4)cc3)cn2)cc1)NC(=O)c1ccc(C(C)(C)C)cc1)C(=O)O` [Compound 794], the EC50 was in the range of 800 to 2500 nM. To `CC(C)CCCCOc1ccc(-c2cnc(-c3ccc(C[C@H](NC(=O)c4ccc(C(C)(C)C)s4)C(=O)N4CC(C(=O)O)C4)cc3)nc2)cc1` [Compound 795] belongs under 800 nM.

As to `CC(C)(C)CCOc1ccc(-c2cnc(-c3ccc(C[C@H](NC(=O)c4ccc(C(C)(C)C)s4)C(=O)N4CC(C(=O)O)C4)cc3)nc2)cc1` [Compound 796], the concentration giving a half-maximal response (EC50) is under 800 nM. Next, `CCC(C)COc1ccc(-c2cnc(-c3ccc(C[C@H](NC(=O)c4ccc(C(C)(C)C)s4)C(=O)N4CC(C(=O)O)C4)cc3)nc2)cc1` (stereo partly shown) [Compound 797]: 800 to 2500 nM; `CC(C)CCCOc1ccc(-c2cnc(-c3ccc(C[C@H](NC(=O)c4ccc(C(C)(C)C)s4)C(=O)N4CC(C(=O)O)C4)cc3)nc2)cc1` [Compound 798, (S)-1-(2-(5-(tert-butyl)thiophene-2-carboxamido)-3-(4-(5-(4-((4-methylpentyl)oxy)phenyl)-pyrimidin-2-yl)phenyl)propanoyl)azetidine-3-carboxylic acid]: 800 to 2500 nM. Next, `CC(C)CCOc1ccc(-c2cnc(-c3ccc(C[C@H](NC(=O)c4ccc(C(C)(C)C)s4)C(=O)N4CC(C(=O)O)C4)cc3)nc2)cc1` [Compound 799]: 800 to 2500 nM. To `COc1ccc(-c2cnc(-c3ccc(C[C@H](NC(=O)c4ccc(C(C)(C)C)cc4)C(=O)N[C@H](C)C(=O)O)cc3)nc2)cc1` [Compound 800] belongs 5000 to 10000 nM; to `CCCCCCCOc1ccc(-c2nc(-c3ccc(C[C@H](NC(=O)c4ccc(C(C)(C)C)cc4)C(=O)N[C@H](C)C(=O)O)cc3)no2)cc1` [Compound 801], 5000 to 10000 nM.
